Reference: patent US6903107B1, “Serine protease inhibitor” (Akzo Nobel N.V., priority 1998, dated 2005)

Molecular target: T1, Human thrombin (Homo sapiens, UniProt P00734)
T1 construct: purchased Centraal Laboratorium voor Bloedtransfusie, Amsterdam, The Netherlands
Assay: Anti-thrombin assay (hydrolysis of chromogenic substrate S-2238)
Format: biochemical
Conditions: chromogenic substrate S-2238, TNP buffer, pH 7.4, 37° C.; read-out: Antithrombin activity: IC50
Method: Thrombin (Factor IIa) is a factor in the coagulation cascade. The anti-thrombin activity of compounds of the present invention was assessed by measuring spectrophotometrically the rate of hydrolysis of the chromogenic substrate s-2238 exterted by thrombin. This assay for anti-thrombin activity in a buffer system was used to assess the IC50-value of a test compound.
Test medium: Tromethamine-NaCl-polyethylene glycol 6000 (TNP) buffer
Reference compound: 12581 (Kabi)
Vehicle: TNP buffer. Solubilisation can be assisted with dimethylsulphoxide, methanol, ethanol, acetonitrile or tert.-butyl alcohol which are without adverse effects in concentrations up to 2.5% in the final reaction mixture.
Technique Reagents* • 1. Tromethamine-NaCl (TN) buffer Composition of the buffer:
• The pH of the solution is adjusted to 7.4 at 37° C. with HCl (10 mmol.l^−1). • 2. TNP buffer Polyethylene glycol 6000 is dissolved in TN buffer to give a concentration of 3 g.l^−1. • 3. S-2238 solution One vial S-2238 (25 mg; Kabi Diagnostica, Sweden) is dissolved in 20 ml TN buffer to give a concentration of 1.25 mg.ml^−1 (2 mmol.l^−1). • 4. Thrombin solution Human thrombin (16 000 nKat.vial^−1; Centraal Laboratorium voor Bloedtransfusie, Amsterdam, The Netherlands) is dissolved in TNP buffer to give a stock solution of 835 nKat.ml^−1. Immediately before use this solution is diluted with TNP buffer to give a concentration of 3.34 nKat.ml^−1. • All ingredients used are of analytical grade • For aqueous solutions ultrapure water (Milli-Q quality) is used.
Preparation of test and reference compound solutions
The test and reference compounds are dissolved in Milli-Q water to give stock concentrations of 10^−2 mol.l^−1. Each concentration is stepwise diluted with the vehicle to give concentrations of 10^−3, 10^−4 and 10^−5 mol.l^−1. The dilutions, including the stock solution, are used in the assay (final concentrations in the reaction mixture: 3·10^−3; 10^−3; 3·10^−4; 10^−4; 3.10^−5; 10^−5; 3.10^−6 and 10^−6 mol.l^−1, respectively).
At room temperature 0.075 ml and 0.025 ml test compound or reference compound solutions or vehicle are alternately pipetted into the wells of a microtiter plate and these solutions are diluted with 0.115 ml and […] TNP buffer, respectively. An aliquot of 0.030 ml S-2238 solution is added to each well and the plate is pre-heated and pre-incubated with shaking in an incubator (Amersham) for 10 min. at 37° C. Following pre-incubation the hydrolysis of S-2238 is started by addition of 0.030 ml thrombin solution to each well. The plate is incubated (with shaking for 30 s) at 37° C. Starting after 1 min of incubation, the absorbance of each sample at 405 nm is measured every 2 min. for a period of 90 min. using a kinetic microtiter plate reader (Twinreader plus, Flow Laboratories). All data are collected in an IBM personal computer using LOTUS-MEASURE. For each compound concentration (expressed in mol.l^−1 reaction mixture) and for the blank the absorbance is plotted versus the reaction time in min.
Evaluation of responses: For each final concentration the maximum absorbance was calculated from the assay plot. The IC50-value (final concentration, expressed in μmol.l^−1, causing 50% inhibition of the maximum absorbance of the blank) was calculated using the logit transformation analysis according to Hafner et al. (Arzneim.-Forsch./Drug Res. 1977; 27(II): 1871-3).

IC50	Compound
0.5 µM	Nc1nccc2cc(OCCC3CCCCN3C(=O)C(CC3CCCCC3)NC3CCCCC3)ccc12 [Example 11, 1-(N-cyclohexyl-D-cyclohexylalanine)-2-(2-(1-amino-isoquinolin-6-oxy)-ethyl)-piperidine]
1.35 µM	Nc1nccc2cc(OCCC3CCCCN3C(=O)C(CC3CCCCC3)NCC(=O)Nc3ccccc3)ccc12 [Example 10, 1-(N-anilinocarbonylmethyl-D-cyclohexylalaninyl)-2-(2-(1-amino-isoquinolin-6-oxy)-ethyl)-piperidine]

Further lines, the compound ahead of its results:

Compound	IC50
Nc1nccc2cc(OCCC3CCCCN3C(=O)C(CC3CCCCC3)NCC(=O)NC3CCCC3)ccc12 [Example 9, 1-(N-cyclopentylaminocarbonylmethyl-D-cyclohexylalaninyl)-2-(2-(1-amino-isoquinolin-6-oxy)-ethyl)-piperidine]	0.32 µM
1-(N-cyclooctyl-γ-tert-butyl-L-glutamyl)-2-(2-(1-amino-isoquinolin-6-oxy)-ethyl)-piperidine [Example 8]	0.61 µM
CC1(C)C2CCC1(CS(=O)(=O)NC(CC1CCCCC1)C(=O)N1CCCCC1CCOc1ccc3c(N)nccc3c1)C(=O)C2 [Example 1, (2S)-1-(N-(−)-camphorsulphonyl-D-cyclohexylalaninyl)-2-(2-(1-amino-isoquinolin-6-oxy)-eythyl)-piperidine]	0.41 µM
